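Protocol summary: plate cells (96-well), add compound at 5 concentrations, incubate 48 h, interpolate endpoints linearly. The concentration for 50% growth inhibition is given as GI50.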 The source made the active and inactive calls. Rule as the data show it: active = GI50 up to about 1.1 µM and inactive = higher.
Experiments:
Test in all cases: NCI anticancer screen, dose series, 48 h
[1] = system: A549
[2] = system: ACHN
[3] = system: CCRF-CEM
[4] = system: HL-60
[5] = system: HT-29
[6] = system: K562
[7] = system: LOX IMVI
[8] = system: M14
[9] = system: MDA-MB-435
[10] = system: MDA-N
[11] = system: NCI-H23
[12] = system: NCI/ADR-RES
[13] = system: PC-3
[14] = system: RPMI-8226
[15] = system: SK-MEL-2
[16] = system: SNB-19
[17] = system: SNB-75
[18] = system: SW-620
[19] = system: U-251
[20] = system: NCI-H460

Measured: GI50

CC(=O)/C=c1\[nH]/c(=C\C=C\c2ccccc2)c(=O)n1/C=C1\C(=O)Oc2ccccc2C1=O
inactive: [1] > 100 µM | [2] > 100 µM | [3] > 100 µM | [4] > 100 µM | [5] > 100 µM | [6] > 100 µM | [7] > 100 µM | [8] > 100 µM | [9] > 100 µM | [10] > 100 µM | [11] > 100 µM | [12] > 100 µM | [13] > 100 µM | [14] > 100 µM | [15] > 100 µM | [16] > 100 µM | [17] 59.4 µM | [18] > 100 µM | [19] > 100 µM

COc1ccc(/C=C(\C#N)c2nc3ccccc3c(=O)[nH]2)cc1
inactive: [1] 45.9 µM | [2] 17.1 µM | [3] > 100 µM | [4] > 100 µM | [5] > 100 µM | [6] > 100 µM | [7] 43.4 µM | [8] 30 µM | [9] > 100 µM | [10] > 100 µM | [20] 16.6 µM | [12] 20.3 µM | [13] 38.7 µM | [14] > 100 µM | [15] 27.3 µM | [16] 12.9 µM | [17] 23.9 µM | [18] 50.4 µM | [19] 9.42 µM

O=C1C(C(O)(C(F)(F)Cl)C(F)(F)Cl)CCC1C(O)(C(F)(F)Cl)C(F)(F)Cl (configuration not stated)
inactive: [1] 9.57 µM | [2] 3.81 µM | [4] > 10 µM | [5] 3.26 µM | [6] > 10 µM | [7] 3.94 µM | [8] 7.78 µM | [9] > 10 µM | [10] > 10 µM | [11] 2.8 µM | [20] > 10 µM | [12] > 10 µM | [13] 4.53 µM | [14] > 10 µM | [15] 2.3 µM | [16] 4.3 µM | [17] 3.7 µM | [18] 4.15 µM | [19] 4.4 µM

Nc1cc(F)ccc1CC(=O)O
inactive: [1] > 100 µM | [2] > 100 µM | [3] > 100 µM | [4] > 100 µM | [5] > 100 µM | [6] > 100 µM | [7] > 100 µM | [8] > 100 µM | [9] > 100 µM | [10] > 100 µM | [11] > 100 µM | [12] > 100 µM | [13] > 100 µM | [14] > 100 µM | [15] > 100 µM | [16] > 100 µM | [17] > 100 µM | [18] > 100 µM | [19] > 100 µM

NC(Cc1c[nH]c2ccc([N+](=O)[O-])cc12)C(=O)O (configuration not stated)
inactive: [1] > 100 µM | [2] > 100 µM | [3] > 100 µM | [4] > 100 µM | [5] > 100 µM | [6] > 100 µM | [7] > 100 µM | [8] > 100 µM | [9] > 100 µM | [10] > 100 µM | [11] > 100 µM | [12] > 100 µM | [13] > 100 µM | [14] > 100 µM | [15] > 100 µM | [16] > 100 µM | [17] > 100 µM | [18] > 100 µM | [19] > 100 µM

Cc1ccc2c(c1C)CC1(Cc3ccc(C)c(C)c3C1=O)C2=O (configuration not stated)
inactive: [1] 35.7 µM | [2] 46 µM | [3] > 100 µM | [4] 94.6 µM | [6] > 100 µM | [7] > 100 µM | [8] > 100 µM | [9] > 100 µM | [10] > 100 µM | [20] > 100 µM | [12] > 100 µM | [13] > 100 µM | [14] > 100 µM | [15] > 100 µM | [16] 59.6 µM | [17] 67.6 µM | [18] > 100 µM | [19] 44 µM

OC1CC2CCCN(CCc3c1[nH]c1ccccc31)C2 (configuration not stated)
inactive: [1] > 100 µM | [2] > 100 µM | [3] > 100 µM | [4] > 100 µM | [5] > 100 µM | [6] > 100 µM | [7] > 100 µM | [9] > 100 µM | [10] > 100 µM | [11] > 100 µM | [20] > 100 µM | [12] > 100 µM | [13] > 100 µM | [14] > 100 µM | [15] > 100 µM | [16] > 100 µM | [17] > 100 µM | [18] > 100 µM | [19] > 100 µM

Reference: ChEMBL document CHEMBL1201862, “PubChem BioAssay data set” (2004)
